Test results taken from patent publication US10709707B2, “Methods of treating ocular conditions” (Oyster Point Pharma, Inc., priority 2016, dated 2020).
Where two headings read alike, the source gives them in different places.

Key:
[1] = target: T1, ganglionic receptor (α3β4) (Homo sapiens, UniProt P30926+P32297); experiment: Receptor function ganglionic receptors (human), SH-SY5Y and IMR-32 cells; type: cell-based
T1 construct: endogenous in cells

[2] = Ames test; type: cell-based; conditions: in vitro
Source text: (§1) Compound 1 was negative for mutagenicity in both in vitro bioassays—including an Ames test, a micronucleus test in mouse lymphoma cells, and a chromosome aberration assay using cultured human peripheral blood lymphocytes—and an in vivo rat bone marrow micronucleus test.

[3] = Clinical studies with oral formulation; type: in vivo
Source text: The drug substance for Compound 1 nasal spray was previously used in clinical trials as an oral formulation. […] Compound 1 is re-formulated as a nasal spray.

[4] = target: T2, muscle receptor (α1β1δγ) (Homo sapiens, UniProt P02708+P07510+Q07001); experiment: Receptor function muscle receptor, TE671 cells; type: cell-based
T2 construct: endogenous in cells; host or cells: TE671 (TE-671) cells / membranes (per the earlier reading)
T2 sequence (P11230 24-501): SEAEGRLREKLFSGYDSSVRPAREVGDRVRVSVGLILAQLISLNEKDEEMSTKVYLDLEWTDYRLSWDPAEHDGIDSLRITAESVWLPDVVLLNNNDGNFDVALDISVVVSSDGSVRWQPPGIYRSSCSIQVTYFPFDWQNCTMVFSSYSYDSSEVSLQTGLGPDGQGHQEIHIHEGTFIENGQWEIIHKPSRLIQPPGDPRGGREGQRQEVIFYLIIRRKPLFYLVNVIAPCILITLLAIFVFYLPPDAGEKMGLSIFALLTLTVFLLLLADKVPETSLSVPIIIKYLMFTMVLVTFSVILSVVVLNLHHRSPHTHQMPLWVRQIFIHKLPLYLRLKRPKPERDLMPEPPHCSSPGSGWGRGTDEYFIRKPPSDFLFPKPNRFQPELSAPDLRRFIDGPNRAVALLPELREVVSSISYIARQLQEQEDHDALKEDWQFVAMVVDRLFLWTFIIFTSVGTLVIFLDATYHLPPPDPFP
T2 sequence (P02708 21-457): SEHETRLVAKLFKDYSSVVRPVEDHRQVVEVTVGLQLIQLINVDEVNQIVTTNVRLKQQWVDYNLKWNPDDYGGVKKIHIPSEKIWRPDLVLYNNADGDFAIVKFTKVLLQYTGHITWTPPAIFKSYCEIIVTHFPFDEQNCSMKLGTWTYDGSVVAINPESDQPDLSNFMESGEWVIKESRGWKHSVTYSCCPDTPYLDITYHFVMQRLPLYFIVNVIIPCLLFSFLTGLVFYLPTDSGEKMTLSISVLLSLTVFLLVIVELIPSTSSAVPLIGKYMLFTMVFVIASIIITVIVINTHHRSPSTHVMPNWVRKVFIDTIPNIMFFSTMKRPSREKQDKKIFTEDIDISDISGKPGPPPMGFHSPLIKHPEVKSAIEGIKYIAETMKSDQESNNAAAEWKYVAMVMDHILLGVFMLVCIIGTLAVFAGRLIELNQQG
T2 sequence (Q07001 22-517): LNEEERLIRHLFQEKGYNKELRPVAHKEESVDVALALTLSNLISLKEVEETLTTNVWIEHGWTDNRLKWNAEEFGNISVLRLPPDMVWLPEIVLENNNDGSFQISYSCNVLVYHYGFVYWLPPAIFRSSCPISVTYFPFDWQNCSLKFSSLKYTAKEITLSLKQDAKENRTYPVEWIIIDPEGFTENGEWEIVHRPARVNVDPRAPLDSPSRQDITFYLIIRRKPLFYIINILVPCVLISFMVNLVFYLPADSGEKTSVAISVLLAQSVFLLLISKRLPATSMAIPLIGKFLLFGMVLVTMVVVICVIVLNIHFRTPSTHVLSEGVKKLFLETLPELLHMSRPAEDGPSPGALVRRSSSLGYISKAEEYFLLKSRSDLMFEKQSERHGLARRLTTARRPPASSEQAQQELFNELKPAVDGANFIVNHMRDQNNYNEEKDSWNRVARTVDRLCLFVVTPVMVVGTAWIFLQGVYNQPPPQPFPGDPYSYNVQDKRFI
T2 sequence (P07510 23-517): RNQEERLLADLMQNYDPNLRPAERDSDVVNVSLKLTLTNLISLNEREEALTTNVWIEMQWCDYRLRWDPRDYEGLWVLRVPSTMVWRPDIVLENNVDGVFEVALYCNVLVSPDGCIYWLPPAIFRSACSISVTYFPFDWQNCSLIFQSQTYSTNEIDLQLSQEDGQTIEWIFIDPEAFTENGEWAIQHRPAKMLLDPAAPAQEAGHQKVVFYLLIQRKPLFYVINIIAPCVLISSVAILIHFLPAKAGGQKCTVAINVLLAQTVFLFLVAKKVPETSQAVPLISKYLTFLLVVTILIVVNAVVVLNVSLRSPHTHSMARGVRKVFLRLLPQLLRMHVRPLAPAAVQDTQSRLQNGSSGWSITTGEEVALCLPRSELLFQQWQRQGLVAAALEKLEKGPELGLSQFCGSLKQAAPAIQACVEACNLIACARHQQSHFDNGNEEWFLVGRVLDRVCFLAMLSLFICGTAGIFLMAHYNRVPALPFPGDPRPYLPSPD

[5] = 13-week repeat-dose oral toxicity in rats; type: in vivo, rat
Protocol: Compound 1 was given to rats once daily for at least 13 weeks via oral gavage at doses of 30, 100, or 300 mg/kg/day. Two of 15 females receiving 300 mg/kg/day died. Clinical signs in males and females in this high-dose group included; reduced food consumption, anogenital staining, lacrimation, chromodacryorrhea, and tremors. Laboratory results included marginally lower RBC mass that correlated with elevated reticulocyte counts with recovery; elevated liver enzymes and bilirubin throughout the dosing period, with evidence of resolution during recovery urinary changes, including increased urine volume, elevated urinary protein, and higher bilirubin and urobilinogen, with resolution during recovery. Rats receiving doses of 100 mg/kg/day and higher had clinical signs that included excessive salivation, tan brown muzzle, closed or partially closed eyelids, and reduced body weight. Laboratory results included elevated WBC (lymphocytes and neutrophils), with recovery; elevated bilirubin; and a slight decrease in total serum protein (globulins and albumin). […] At doses ≥100 mg/kg/day, microscopic findings of centrilobular hepatocellular hypertrophy, medullary adrenal gland cell hypertrophy, mucosal epithelial cell hyperplasia of the small intestine, and increased extramedullary hematopoiesis and hemosiderin deposits in the red pulp of the spleen were observed. […] Accordingly, the NOAEL was considered to be 30 mg/kg/day. […] AUC and Cmax increased between Day 1 and Day 29.

[6] = test system: formalin test; experiment: Analgesic effects, formalin test; type: in vivo, Mouse: CD-1; conditions: po; Compound 1 0.1, 1 and 10 mg/kg, Aspirin 100 mg/kg, Morphine 30 mg/kg
[7] = test system: rat bone marrow; experiment: in vivo rat bone marrow micronucleus test
Source text: as §1

[8] = Single dose pharmacokinetics, mouse; type: in vivo, Swiss mouse; conditions: for half-life: po, 1 mg/kg
[9] = binding to red blood cells and blood/plasma ratio; type: in vitro ADME; conditions: broadly species and concentration independent
Protocol: Binding of Compound 1 to red blood cells was 28 to 54% directly after spiking and 41 to 63% at 0.5 and 1 hour after spiking. The blood/plasma ratios ranged from 0.78 to 1.26 and were broadly species and concentration independent.

[10] = Human ganglion-type (a3b4*), Ca++ Flux
[11] = female, rat, in vivo, po, 30 mg/kg/day
[12] = male, rat, in vivo, po, 30 mg/kg/day
[13] = plasma, Swiss mouse, 1.0 mg/kg Compound 1, oral

T1 sequence (P32297 32-505): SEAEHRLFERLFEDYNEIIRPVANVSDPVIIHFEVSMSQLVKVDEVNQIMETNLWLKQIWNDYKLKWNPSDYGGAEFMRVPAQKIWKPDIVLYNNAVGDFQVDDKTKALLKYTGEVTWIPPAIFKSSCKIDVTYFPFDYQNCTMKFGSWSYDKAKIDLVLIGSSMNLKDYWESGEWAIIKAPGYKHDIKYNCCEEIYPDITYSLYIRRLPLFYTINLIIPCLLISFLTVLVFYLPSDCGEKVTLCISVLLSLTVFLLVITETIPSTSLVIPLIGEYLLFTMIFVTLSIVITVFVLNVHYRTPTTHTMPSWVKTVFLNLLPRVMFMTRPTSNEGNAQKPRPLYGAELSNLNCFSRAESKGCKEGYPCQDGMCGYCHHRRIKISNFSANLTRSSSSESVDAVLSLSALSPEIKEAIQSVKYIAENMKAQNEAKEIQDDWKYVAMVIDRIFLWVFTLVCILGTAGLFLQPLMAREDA
T1 sequence (P30926 22-498): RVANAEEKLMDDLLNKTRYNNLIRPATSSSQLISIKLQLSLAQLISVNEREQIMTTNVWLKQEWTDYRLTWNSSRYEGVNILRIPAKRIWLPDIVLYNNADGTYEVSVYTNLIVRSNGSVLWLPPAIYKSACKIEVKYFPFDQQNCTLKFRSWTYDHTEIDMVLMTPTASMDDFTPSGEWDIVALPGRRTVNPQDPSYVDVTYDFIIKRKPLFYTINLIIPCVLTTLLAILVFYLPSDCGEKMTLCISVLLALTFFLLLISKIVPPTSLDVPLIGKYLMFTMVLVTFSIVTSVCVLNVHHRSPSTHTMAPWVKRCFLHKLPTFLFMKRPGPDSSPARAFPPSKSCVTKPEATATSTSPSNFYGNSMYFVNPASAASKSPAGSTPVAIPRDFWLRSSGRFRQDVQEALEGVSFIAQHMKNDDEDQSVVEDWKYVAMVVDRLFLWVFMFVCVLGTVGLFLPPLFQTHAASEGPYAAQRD

**Q.** Which EC50 [1, 10] does the source give for `C(=C\[C@H]1CCNC1)/c1cncnc1` [Compound 1, (R)-5-((E)-2-pyrrolidin-3-ylvinyl)pyrimidine] here?
**A.** The EC50 was 13 µM.

**Q.** And the Emax [1, 10]?
**A.** Its Emax is 150%.

**Q.** And the EC50 ([1]; IMR-32 cells)?
**A.** Its EC50 is 22 µM.

**Q.** And the EC50 ([1]; Rb+ Flux, IMR cells)?
**A.** The EC50 was 22 µM.

**Q.** And the Emax ([1]; Rb+ Flux, IMR cells)?
**A.** Its Emax is 79%.

**Q.** What about the EC50 ([1]; Rb+ Flux, SHSY5Y cells) of the same compound?
**A.** Its EC50 is 18 µM.

**Q.** And the EC50 ([1]; SH-SY5Y cells)?
**A.** Its EC50 is 18 µM.

**Q.** And the Emax vs. nicotine ([1]; SH-SY5Y cells)?
**A.** Its Emax vs. nicotine is 60%.

**Q.** And the Emax ([1]; SH-SY5Y, Rb+ Flux, SHSY5Y cells)?
**A.** The Emax was 60%.

**Q.** And the agonist type ([1]; α3β4 nicotine receptor subtype)?
**A.** Its agonist type is “full agonist”.

**Q.** And the “mutagenicity, Ames test” value [2]?
**A.** The value was “negative”.

**Q.** And the “efficacy in clinical studies” value [3]?
**A.** The value was “failed to reach efficacy endpoints”.

**Q.** And the “safety in clinical studies” value [3]?
**A.** The value was “considered safe”.

**Q.** What about the EC50 [4] of the same compound?
**A.** The EC50 was 15 µM.

**Q.** What about the Emax ([4]; TE-671, Human muscle-type, Ca++ Flux) of the same compound?
**A.** Its Emax is 42%.

**Q.** What about the Emax ([4]; TE-671, Human muscle-type, Rb+ Flux, single point) of the same compound?
**A.** The Emax was 12%.

**Q.** And the Emax ([4]; TE-671, TE671 cells)?
**A.** Its Emax is 42%.

**Q.** And the NOAEL at 13 weeks ([5]; both sexes, in vivo, 13-week rat study, oral, as summarised)?
**A.** The NOAEL at 13 weeks was 30 mg/kg.

**Q.** What about the Tmax ([5]; both sexes, rat, in vivo, po) of the same compound?
**A.** Its Tmax is 30 to 120 min.

**Q.** What about the NOAEL at 13 weeks ([5]; both sexes, rat, in vivo, rats, oral gavage once daily, 13 weeks) of the same compound?
**A.** Its NOAEL at 13 weeks is 30 mg/kg/day.

**Q.** What about the AUC [5, 11] of the same compound?
**A.** Its AUC is 10200 ng·h/mL.

**Q.** What about the Cmax [5, 11] of the same compound?
**A.** The Cmax was 3150 ng/mL.

**Q.** And the deaths ([5]; females, 300 mg/kg/day)?
**A.** The deaths was “Two of 15”.

**Q.** What about the “incidence of minimal hepatocellular hypertrophy” value ([5]; male, rat, in vivo, 30 mg/kg/day, 13 weeks) of the same compound?
**A.** The value was 7 of 10.

**Q.** And the AUC [5, 12]?
**A.** The AUC was 12100 ng·h/mL.

**Q.** What about the Cmax [5, 12] of the same compound?
**A.** Its Cmax is 2570 ng/mL.

**Q.** And the “analgesic effects after formalin injection, Day 1” value [6]?
**A.** The value was “mg/kg) and Aspirin at 100 mg/kg failed”.

**Q.** And the “mutagenicity, bone marrow micronucleus test” value [7]?
**A.** The value was “negative”.

**Q.** And the Kp ([8]; Swiss, mouse, brain, oral, 1 mg/kg orally, read-out: brain exposure as share of plasma exposure)?
**A.** Its Kp is ~0.3.

**Q.** What about the half-life ([8]; Swiss, mouse, plasma, 1 mg/kg orally, read-out: terminal elimination half-life (converted)) of the same compound?
**A.** The half-life was ~30 min.

**Q.** What about the half-life ([8]; Swiss, mouse, plasma, Swiss mouse, 1.0 mg/kg Compound 1, oral, read-out: t1/2 (converted)) of the same compound?
**A.** The half-life was 30 min.

**Q.** And the Cmax [8, 13]?
**A.** Its Cmax is 15 ng/mL.

**Q.** What about the Tmax [8, 13] of the same compound?
**A.** Its Tmax is 10 min.

**Q.** And the AUC(0-t) ([8]; plasma, Swiss mouse, 1.0 mg/kg Compound 1, oral, t = 25 h, read-out: AUC0-1)?
**A.** The AUC(0-t) was 10.1 ng·h/mL.

**Q.** And the blood plasma ratio [9]?
**A.** Its blood plasma ratio is 0.78 to 1.26.
